The test system of experiment [1] is rat mast cells. The experiment can be described thus: Inhibitory action on degranulation of mast cells (histamine release from rat mast cells). It is filed as cell-based. The conditions noted are these: Mast cell; rat peritoneal mast cells, anti-IgE antibody, 37° C. On the procedure:
Inhibitory action on degranulation of mast cells
(A) Preparation of mast cells
30 ml of mast cell buffer solution (150 mM sodium chloride, 3.7 mM potassium chloride, 3.0 mM disodium hydrogen phosphate, 3.5 mM sodium dihydrogen phosphate, 5.6 mM dextrose, pH 7.0) was injected into the abdomen of a rat(SD, male, 8 to 10 week-old), and intra peritoneal cavity cells were recovered and centrifuged at 800 rpm for 5 minutes, and then the abdomen infiltration cells were recovered as precipitates. The precipitated cells were further washed twice with the mast cell buffer solution, suspended again at a predetermined density, and used in the objective experiment.
(B) Inhibitory action on degranulation of mast cells (inhibitory action on histamine release from rat mast cells)
The mast cells obtained in the procedure in (A) above were suspended at 1×10^5 cells in the mast cell buffer solution and kept at 37° C. 2 μl of each drug and 200 μl of the cell suspension were added into a 1.5 ml test tube previously kept at 37° C. and incubated at 37° C. for 10 minutes. After incubation, 2 μl anti-IgE antibody (BETHYL Lab. Inc.) was added to it and further incubated at 37° C. for 15 minutes. After the end of the reaction, the reaction mixture was immediately cooled on ice and centrifuged at 4° C. at 4000 rpm for 5 minutes, and then the supernatant was stored. Histamine in the supernatant was modified with ortho-phthalaldehyde and measured by high performance liquid chromatography to determine 50% inhibitory concentration (IC50: μM).

Experiment [2] concerns the target T1, dog chymase (Canis lupus familiaris, UniProt P21842).
T1 construct: 60 g dog heart was finely divided by scissors and a scalpel; from tissue; host or cells: dog heart
T1 sequence (P21842 22-249): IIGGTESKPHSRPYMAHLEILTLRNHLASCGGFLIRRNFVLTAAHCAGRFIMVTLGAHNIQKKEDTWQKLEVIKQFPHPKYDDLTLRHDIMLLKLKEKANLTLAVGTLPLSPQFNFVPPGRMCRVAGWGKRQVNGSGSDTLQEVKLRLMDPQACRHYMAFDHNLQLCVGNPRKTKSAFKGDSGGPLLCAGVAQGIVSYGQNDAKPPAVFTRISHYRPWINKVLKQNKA
The experiment can be described thus: Inhibitory activity on dog chymase (angiotensin I as substrate). Particulars: pH 8.0, 37° C., 60 min, read-out: Dog Chymase (IC50: nM), 50% inhibitory concentration. Type of experiment: biochemical. An excerpt: It is known that chymase is present in tissues of various animals, and its isolation and purification methods are described in Anal. Biochem., 137, 449 (1984) and FEBS Letters, 323, 119 (1993). In the present invention, chymase was purified by the methods described in these literatures, and the present compounds were examined for inhibitory activity on chymase, inhibitory action on activation of mast cells and eosinophils, and pharmacological action in animals. Hereinafter, specific methods are described. (c) Preparation of dog chymase 60 g dog heart was finely divided by scissors and a scalpel, suspended in 0.1 M phosphate buffer (pH 8.0), and disrupted by a Polytron homogenizer for 5 minutes to prepare a crude chymase enzyme solution. It was centrifuged at 22000×g for 15 minutes, and the precipitates were used as a chymase enzyme fraction. […] An active fraction decomposing the synthetic chymase substrate was recovered and concentrated and this product was used as a purified dog chymase in the following activity measurement. (D) Measurement of inhibitory activity on chymase (b) Measurement using angiotensin I as substrate The inhibitory activity on the human chymase and dog chymase was measured using angiotensin I (Peptide Kenkyusho) as substrate besides the above synthetic substrate. […] After the end of the reaction, produced angiotensin II was immediately measured by high performance liquid chromatography to determine the activity of the chymase to calculate 50% inhibitory concentration (IC50: nM). The test was conducted several times. Chymase was prepared for each test in the manner described above. The compounds examined were compounds prepared in the above-described examples. […] 50% Inhibitory concentration (IC50: nM) of each compound toward rat chymase, dog […] human […] Substrate: Succinyl leucyl leucyl valyl tyrosyl methylcoumarylamide (for rat […] angiotensin I (for human and dog chymase)

In experiment [3] the test system is guinea pig eosinophils. The experiment can be described thus: Inhibitory action on eosinophils (release of active oxygen from guinea pig eosinophils). Type of experiment: cell-based. The conditions noted are these: Cavia porcellus, Eosinophil, 5 min, PAF, luminol chemiluminescence for 5 minutes. As to the method:
Inhibitory activity on eosinophil activation
(A) Preparation of eosinophils
Polymyxin B (produced by Sigma) was administered intraperitoneally into a guinea pig (Hartley, male, 6-week-old) at a dosage of 1 mg once every week for 6 to 8 weeks. After the final administration of polymyxin B. 50 ml of PBS (phosphate-buffered saline) was injected into the intraperitoneal cavity of the guinea pig, and cells were recovered. The cells were centrifuged at 800 rpm for 5 minutes and the abdomen infiltration cells were collected as precipitates and then suspended in 1 ml of 40% Ficoll (40% Ficoll (produced by Pharmacia), HBSS (Hanks' balanced salt solution) and layered on a Ficoll discontinuous density gradient (40 to 90%). It was centrifuged at 1500 rpm for 40 minutes, and the eosinophil fraction was recovered. In this operation, eosinophils of 99% or more purity were usually obtained. Further, the cells were washed twice with RPMI 1640 medium (10% BSA (bovine serum albumin available from Boehringer Mannheim), suspended again at a predetermined density, and used in the objective experiment.
(B) Inhibitory action on eosinophils (inhibitory action on release of active oxygen from guinea pig eosinophils)
The eosinophils (99% or more purity) obtained by the Ficoll density gradient method in (A) above were suspended at a cell density of 4×10^5 in a buffer solution (0.136 M sodium chloride, 2.7 mM potassium chloride, 1.8 mM calcium chloride, 1.0 mM magnesium chloride, 11.9 mM sodium hydrogen carbonate, 5.5 mM D-glucose, 5.0 mM HEPES, 0.36 mM sodium dihydrogen phosphate, pH 7.2). Each drug (2 μl) and 180 μl of the cell suspension were put to a 96-well multi-well plate (for chemiluminescence measurement, white type) previously kept at 37° C., and incubated at 37° C. for 10 minutes. After incubation, 20 μl of PAF (platelet-activating factor) (5×10^-6 M) and 20 μl of a luminol solution were added to it and immediately examined for its chemiluminescence (Luminoskan Labosystem). The chemiluminescence for 5 minutes were measured to calculate 50% inhibitory concentration (IC50: μM).

Counter-ions that a name gives are not always drawn.

IC50 data for 10 compounds are collected here from patent publication US6271238A, “Acetamide derivatives and protease inhibitors” (Nippon Kayaku Kabushiki Kaisha, priority 1996, dated 2001).

For the compound `Nc1cnc(-c2ccccc2)n(CC(=O)NC(Cc2ccccc2)C(=O)C(=O)CCCc2ccccc2)c1=O` (stereo not shown) [Compound 40], the IC50 was determined as 1.8 µM in experiment [1], 13 nM in experiment [2] and 5.6 µM in experiment [3]. On to `CCCCC(=O)C(=O)C(Cc1ccccc1)NC(=O)Cn1c(-c2ccccc2)ncc(N)c1=O` (stereo not shown) [Compound 44], for which the IC50 in experiment [1] worked out at 14 µM; in experiment [2] it was 16 nM; in experiment [3], 18 µM. Regarding `CC(=O)C(=O)C(Cc1cccc(F)c1)NC(=O)Cn1c(-c2ccccc2)ncc(N)c1=O` (stereo not shown) [Compound 52, 2-(5-Amino-6-oxo-2-phenyl-1,6-dihydropyrimidine-1-yl)-N-{1-(3-fluorophenyl)methyl-2,3-dioxo}butylacetamide], the IC50 was determined as 50 µM in experiment [1], 27 nM in experiment [2] and 26 µM in experiment [3]. Take `CCOC(=O)CCCC(=O)C(=O)C(Cc1cccc(F)c1)NC(=O)Cn1c(-c2ccccc2)ncc(N)c1=O` (stereo not shown) [Compound 54]: the IC50 in experiment [1] is 35 µM; in experiment [2], 3.6 nM; in experiment [3], 62 µM. Take `CC(C)(C)OC(=O)Nc1cnc(-c2ccccc2)n(CC(=O)NC(Cc2ccccc2)C(=O)C(=O)CCCn2ccccc2=O)c1=O` (stereo not shown) [Compound 72, 2-(5-t-Butyloxycarbonylamino-6-oxo-2-phenyl-1,6-dihydropyrimidine-1-yl)-N-{2,3-dioxo-6-(2-oxo-1,2-dihydropyridine-1-yl)-1-phenylmethyl}hexylacetamide]: the IC50 in experiment [2] turned out to be 1.6 nM. Turning to `Nc1cnc(-c2ccccc2)n(CC(=O)NC(Cc2ccccc2)C(=O)C(=O)CCCn2ccccc2=O)c1=O` (stereo not shown) [Compound 73, 2-(5-Amino-6-oxo-2-phenyl-1,6-dihydropyrimidine-1-yl)-N-{2,3-dioxo-1-phenylmethyl-6-(2-oxo-1,2-dihydropyridine-1-yl)}hexylacetamide hydrochloride], the results for the IC50 in experiment [2] and in experiment [3] were 2.9 nM and 3 µM, respectively. For the compound `CC(C)(C)OC(=O)Nc1cnc(-c2ccccc2)n(CC(=O)NC(Cc2ccccc2)C(=O)C(=O)CCCOc2ccccn2)c1=O` (stereo not shown) [Compound 74, 2-(5-t-Butyloxycarbonylamino-6-oxo-2-phenyl-1,6-dihydropyrimidine-1-yl)-N-{2,3-dioxo-6-(2-pyridyloxy)-1-phenylmethyl}hexylacetamide], the IC50 in experiment [2] was found to be 0.92 nM. With `O=CNc1cnc(-c2ccccc2)n(CC(=O)NC(Cc2ccccc2)C(=O)C(=O)CCCOc2ccccn2)c1=O` (stereo not shown) [Compound 79, 2-(5-Formylamino-6-oxo-2-phenyl-1,6-dihydropyrimidine-1-yl)-N-{2,3-dioxo-1-phenylmethyl-6-(2-pyridyloxy)}hexylacetamide], the IC50 in experiment [2] was 0.32 nM. As for `CC(=O)Nc1cnc(-c2ccccc2)n(CC(=O)NC(Cc2ccccc2)C(=O)C(=O)CCCOc2ccccn2)c1=O` (stereo not shown) [Compound 80, 2-(5-Acetylamino-6-oxo-2-phenyl-1,6-dihydropyrimidine1-yl)-N-{2,3-dioxo-1-phenylmethyl-6-(-2-pyridyloxy)}hexyl-acetamide], the IC50 in experiment [2] worked out at 0.35 nM.

Consider `O=C(Cn1c(-c2ccccc2)ncc(NS(=O)(=O)NCc2ccccc2)c1=O)NC(Cc1ccccc1)C(=O)C(=O)CCCOc1ccccn1` (stereo not shown) [Compound 82, 2-(5-Benzylaminosulfonylamino-6-oxo-2-phenyl-1,6-dihydropyrimidine-1-yl)-N-{2,3-dioxo-1-phenylmethyl-6-(2-pyridyloxy)}hexylacetamide], for which the IC50 in experiment [2] came to 0.14 nM.
